Test results: ChEMBL document CHEMBL4346724, “Porphyrinoid photosensitizers mediated photodynamic inactivation against bacteria” (Eur J Med Chem, 2019)

Experiments:
Pseudomonas aeruginosa [1] = test: Photodynamic antibacterial activity against Pseudomonas aeruginosa assessed as reduction in biofilm formation at 20 uM incubated for 10 mins in presence of tungsten halogen lamp light exposure at 22.5 to 180 J/cm2; format: functional
Staphylococcus aureus [2] = test: Photodynamic antibacterial activity against Staphylococcus aureus assessed as reduction in biofilm activity at 2.5 uM incubated for 10 mins in presence of tungsten halogen lamp light exposure at 22.5 to 180 J/cm2; format: functional
Enterococcus faecalis [3] = test: Photodynamic antibacterial activity against Enterococcus faecalis assessed as reduction in bacterial burden at 5 uM after 15 mins in presence of light irradiation at 21.6 J/cm2; format: functional
Enterococcus faecalis [4] = test: Photodynamic antibacterial activity against Enterococcus faecalis assessed as reduction in bacterial burden at 10 uM in presence of light irradiation at 100 J/cm2; format: functional
Enterococcus faecalis [5] = test: Photodynamic antibacterial activity against Enterococcus faecalis assessed as reduction in bacterial burden at 30 uM in presence of light irradiation at 100 J/cm2; format: functional
Enterococcus faecalis [6] = test: Dark toxicity against Enterococcus faecalis assessed as reduction in bacterial burden; format: organism-based; details: in vivo
Staphylococcus aureus [7] = test: Photodynamic antibacterial activity against Staphylococcus aureus assessed as reduction in bacterial burden at 100 nM; format: functional
Pseudomonas aeruginosa [8] = test: Photodynamic antibacterial activity against Pseudomonas aeruginosa assessed as reduction in bacterial burden at 100 to 225 uM preincubated with bacteria followed by exposure of mercury vapor lamp light at 100 J/cm2 for 10 mins; format: functional
Pseudomonas aeruginosa [9] = test: Photodynamic antibacterial activity against Pseudomonas aeruginosa assessed as bacterial killing at 2.5 mg/ml in presence of light at 100 J/cm2 relative to control; format: functional
Pseudomonas aeruginosa [10] = test: Photodynamic antibacterial activity against Pseudomonas aeruginosa assessed as reduction in biofilm formation at 5 mg/ml in presence of light at 100 J/cm2 relative to control; format: functional; design: scale not given: the % may be the effect or the level left
Pseudomonas aeruginosa [11] = test: Photodynamic antibacterial activity against Pseudomonas aeruginosa assessed as reduction in bacterial burden at 225 uM in presence of light at 100 J/cm2; format: functional
Pseudomonas aeruginosa [12] = test: Photodynamic antibacterial activity against Pseudomonas aeruginosa assessed as reduction in bacterial burden at 1 to 10 uM preincubated for 10 mins in dark condition followed by exposure of LED light at 66 to 266 J/cm2; format: functional
Pseudomonas aeruginosa [13] = test: Photodynamic antibacterial activity against Pseudomonas aeruginosa assessed as bacterial burden at 1 to 10 uM preincubated for 10 mins in dark condition followed by exposure of LED light at 66 to 266 J/cm2 relative to control; format: functional
Enterococcus faecalis [14] = test: Photodynamic antibacterial activity against Enterococcus faecalis assessed as reduction in bacterial burden at 5 uM after 15 mins in presence of light irradiation at 14.4 J/cm2; format: functional
Enterococcus faecalis [15] = test: Photodynamic antibacterial activity against Enterococcus faecalis assessed as reduction in bacterial burden at 5 uM after 15 mins in presence of light irradiation at 64.8 J/cm2; format: functional
Enterococcus faecalis [16] = test: Photodynamic antibacterial activity against Enterococcus faecalis assessed as reduction in bacterial burden at 10 uM after 15 mins in presence of light irradiation at 64.8 J/cm2; format: functional
Escherichia coli [17] = test: Photodynamic antibacterial activity against Escherichia coli ATCC 25922 assessed as reduction in bacterial burden after 24 hrs in presence of diode laser at 6 J/cm2; format: functional
Helicobacter pylori [18] = test: Photodynamic antibacterial activity against Helicobacter pylori infected in patient assessed as bacterial eradication at 20 mg/lg, po after 4 hrs in presence of white light relative to control; format: functional
Helicobacter pylori [19] = test: Photodynamic antibacterial activity against Helicobacter pylori infected in patient assessed as bacterial eradication at 20 mg/lg, po after 4 hrs in presence of blue light relative to control; format: functional
Staphylococcus aureus [20] = test: Photodynamic antibacterial activity against Staphylococcus aureus assessed as bacterial killing within 15 mins in presence of tungsten lamps light at 37 uEm'-2sec'-1 by spectrophotometic analysis relative to control; format: functional
Saccharomyces cerevisiae = test: Photodynamic fungal activity against Saccharomyces cerevisiae assessed as reduction in fungal burden at 100 nM; format: functional
Escherichia coli [21] = test: Photodynamic antibacterial activity against Escherichia coli assessed as reduction in bacterial burden at 0.5 to 1 uM after 15 mins in presence of light irradiation at 1004 J/cm2; format: functional
Porphyromonas gingivalis = test: Photodynamic antibacterial activity against Porphyromonas gingivalis assessed as reduction in bacterial viability at 10 uM in presence of light at 5.3 to 20.1 J/cm2 by propidium iodide staining-based fluorescence assay; format: functional
Fusobacterium nucleatum = test: Photodynamic antibacterial activity against Fusobacterium nucleatum assessed as reduction in bacterial viability at 10 uM in presence of light at 5.3 to 20.1 J/cm2 by propidium iodide staining-based fluorescence assay; format: functional
[22] = tested on: Capnocytophaga gingivalis; test: Photodynamic antibacterial activity against Capnocytophaga gingivalis assessed as reduction in bacterial viability at 10 uM in presence of light at 5.3 to 20.1 J/cm2 by propidium iodide staining-based fluorescence assay; format: functional
Eikenella corrodens = test: Photodynamic antibacterial activity against Eikenella corrodens assessed as reduction in bacterial viability at 10 uM in presence of light at 20.1 J/cm2 by propidium iodide staining-based fluorescence assay; format: functional
[23] = tested on: Aggregatibacter actinomycetemcomitans; test: Photodynamic antibacterial activity against Aggregatibacter actinomycetemcomitans assessed as reduction in bacterial viability at 10 uM in presence of light at 5.3 J/cm2 by propidium iodide staining-based fluorescence assay; format: functional
[24] = tested on: Aggregatibacter actinomycetemcomitans; test: Photodynamic antibacterial activity against Aggregatibacter actinomycetemcomitans assessed as reduction in bacterial viability at 10 uM in presence of light at 20.1 J/cm2 by propidium iodide staining-based fluorescence assay; format: functional
Enterococcus faecalis [25] = test: Photodynamic antibacterial activity against Enterococcus faecalis assessed as reduction in bacterial burden in presence of light irradiation; format: functional, organism-based
Escherichia coli [26] = test: Photodynamic antibacterial activity against Escherichia coli assessed as reduction in bacterial burden at 5 uM after 15 mins in presence of light irradiation at 64.8 J/cm2; format: functional, organism-based
Pseudomonas aeruginosa [27] = test: Photodynamic antibacterial activity against Pseudomonas aeruginosa assessed as reduction in biofilm formation at 0.5 mg/ml in presence of light at 100 J/cm2; format: functional
Pseudomonas aeruginosa [28] = test: Photodynamic antibacterial activity against Pseudomonas aeruginosa assessed as biofilm formation at 0.5 mg/ml in presence of light at 100 J/cm2 relative to control; format: functional

## CN(C)CCCOc1ccc(-c2c3nc(c(-c4ccc(OCCCN(C)C)cc4)c4ccc([nH]4)c(-c4ccc(OCCCN(C)C)cc4)c4nc(c(-c5ccc(OCCCN(C)C)cc5)c5ccc2[nH]5)C=C4)C=C3)cc1
Pseudomonas aeruginosa [1]
  log(activity): 3
Staphylococcus aureus [2]
  log(activity): 8

## COC(=O)c1ccc(-c2c3nc(c(-c4cc[n+](C)cc4)c4ccc([nH]4)c(-c4cc[n+](C)cc4)c4nc(c(-c5cc[n+](C)cc5)c5ccc2[nH]5)C=C4)C=C3)cc1.[I-].[I-].[I-]
Enterococcus faecalis [3]
  log(activity): 7

## Oc1cccc(-c2c3nc(c(-c4cccc(O)c4)c4ccc([nH]4)c(-c4cccc(O)c4)c4nc(c(-c5cccc(O)c5)c5ccc2[nH]5)CC4)C=C3)c1 [TEMOPORFIN]
Enterococcus faecalis [4]
  log(activity): 5.8
Enterococcus faecalis [5]
  log(activity): 6.7
Enterococcus faecalis [6]
  log(activity): 1.5

## CC1(C)Cc2cc3[nH]c(cc4nc(cc5[nH]c(cc1n2)cc5C(=O)NCC[N+](C)(C)C)CC4(C)C)cc3C(=O)NCC[N+](C)(C)C
Staphylococcus aureus [7]
  log(activity): 5

## C[n+]1ccc(-c2c3nc(c(-c4cc[n+](C)cc4)c4ccc([nH]4)c(-c4cc[n+](C)cc4)c4nc(c(-c5cc[n+](C)cc5)c5ccc2[nH]5)C=C4)C=C3)cc1.[I-].[I-].[I-].[I-]
Pseudomonas aeruginosa [8]
  log(activity): 4.1
Pseudomonas aeruginosa [9]
  Activity: >99%
Pseudomonas aeruginosa [10]
  Activity: >99%
Pseudomonas aeruginosa [11]
  log(activity): 1.2
Pseudomonas aeruginosa [12]
  log(activity): <1
Pseudomonas aeruginosa [13]
  Activity: >80%
Enterococcus faecalis [3]
  log(activity): 7
Enterococcus faecalis [14]
  log(activity): 7.35
Enterococcus faecalis [15]
  log(activity): 7.33
Enterococcus faecalis [16]
  log(activity): 5.07

## C=Cc1c(C)c2cc3nc(c(C=O)c4[nH]c(cc5nc(cc1[nH]2)C(C)=C5C)c(C)c4C(=O)O)[C@@H](CCC(=O)O)[C@@H]3C
Escherichia coli [17]
  log(activity): 0.17

## NCC(=O)CCC(=O)O [AMINOLEVULINIC ACID]
Helicobacter pylori [18]
  Activity: 85%
Helicobacter pylori [19]
  Activity: 66%

## CC1=Cc2cc3[nH]c(cc4nc(cc5[nH]c(cc1n2)cc5C)C(C)=C4CCC(=O)O)c(CCC(=O)O)c3C
Staphylococcus aureus [20]
  Activity: 99.9%

## CC1(C)Cc2cc3[nH]c(cc4nc(cc5[nH]c(cc1n2)cc5CN(CCO)CCO)CC4(C)C)cc3CN(CCO)CCO
Saccharomyces cerevisiae
  log(activity): >6

## C[n+]1ccc(-c2c3nc(c(-c4cc[n+](C)cc4)c4ccc([nH]4)c(-c4c(F)c(F)c(F)c(F)c4F)c4nc(c(-c5cc[n+](C)cc5)c5ccc2[nH]5)C=C4)C=C3)cc1.[I-].[I-].[I-]
Escherichia coli [21]
  log(activity): 3

## CC[C@H](C)CCCCCCCCCCC(=O)OC[C@H]1O[C@@H](OC(=O)/C(C)=C/C=C/C(C)=C/C=C/C(C)=C/C=C/C=C(C)/C=C/C=C(\C)CCC=C(C)C)[C@H](O)[C@@H](O)[C@@H]1O
Porphyromonas gingivalis
  log(activity): 4.9
Fusobacterium nucleatum
  log(activity): 5.3
[22]
  log(activity): 6.7
Eikenella corrodens
  log(activity): 3
[23]
  log(activity): -0.2
[24]
  log(activity): -1

## C[n+]1ccc(-c2c3nc(c(-c4ccc(C(=O)O)cc4)c4ccc([nH]4)c(-c4cc[n+](C)cc4)c4nc(c(-c5ccc(C(=O)O)cc5)c5ccc2[nH]5)C=C4)C=C3)cc1
Enterococcus faecalis [25]
  log(activity): 0.88
Escherichia coli [26]
  log(activity): > 3

## C[n+]1ccc(-c2c3nc(c(-c4cc[n+](C)cc4)c4ccc([nH]4)c(-c4cc[n+](C)cc4)c4nc(c(-c5cc[n+](C)cc5)c5ccc2[nH]5)C=C4)C=C3)cc1.Cc1ccc(S(=O)(=O)[O-])cc1.Cc1ccc(S(=O)(=O)[O-])cc1.Cc1ccc(S(=O)(=O)[O-])cc1.Cc1ccc(S(=O)(=O)[O-])cc1
Pseudomonas aeruginosa [27]
  log(activity): 4
Pseudomonas aeruginosa [28]
  Activity: 99.9%

## C[n+]1ccc(-c2c3nc(c(-c4cc[n+](C)cc4)c4ccc([nH]4)c(-c4ccc(C(=O)O)cc4)c4nc(c(-c5ccc(C(=O)O)cc5)c5ccc2[nH]5)C=C4)C=C3)cc1
Enterococcus faecalis [25]
  log(activity): 7.03
Escherichia coli [26]
  log(activity): > 3
